# From US20240368194A1, “IRAK4 DEGRADATION AGENT, AND PREPARATION METHOD THEREFOR AND USE THEREOF” (SHANGHAI LEADINGTAC PHARMACEUTICAL CO. LTD., priority 2021, published 2024)
# How the values were obtained:
# [1] = molecular target: IRAK4 protein in THP-1 cells (Homo sapiens (Human), UniProt Q9NWZ3); experiment: Degradation of IRAK4 in THP-1 cells, human IRAK4 AlphaLISA assay; assay type: cell-based; details: 24 h incubation
# Procedure: THP-1 cells (Stem Cell Bank, Chinese Academy of Sciences) were inoculated onto a 24-well cell culture plate at 0.95 mL/well, with a cell density of 5×10^5 cells/well. The cell plate was incubated overnight in a 37° C., 5% carbon dioxide incubator, and 50 μL of a solution of a compound in dimethyl sulfoxide was added, such that the final concentration of the compound fell within the range of 0.03-3000 nM. After another 24 h of incubation, cells were collected into 1.5 mL centrifuge tubes and centrifuged at 1000 rpm at 4° C. for 5 min. The cell pellets were washed twice with 1×DPBS. The resuspended cells were lysed with 200 μL of lysis buffer (Western and IP cell lysis buffer (Beyotime), supplemented with 1 mM phenylmethylsulfonyl fluoride and protease inhibitor cocktail (Beyotime)), left to stand on ice for 30 mini, and then centrifuged at 14,000 g at 4° C. for 10 min. The supernatant samples were assayed by Western Blot for IRAK4 protein levels.
# The above cell lysates were also tested for IRAK4 degradation using a human IRAK4 AlphaLISA assay kit (PerkinElmer, AL3117C). The method is specifically as follows: 2-μL test samples of cell lysate supernatant were transferred to a white 384-well plate (PerkinElmer, 6007299), and 4 μL of 5× anti-IRAK4 receptor beads (PerkinElmer, final concentration of 10 μg/mL) was then added. The plate was incubated at 23° C. for 30 min. Then 4 μL of 5× biotin-labeled anti-IRAK4 antibody (PerkinElmer, final concentration of 1 nM) was added, and the plate was incubated at 23° C. for 60 min. Finally, 10 μL of 2′ streptavidin-labeled donor beads (final concentration of 40 μg/mL) was added to each well, and the plate was incubated in the dark at 23° C. for 30 min. After the incubation was complete, AlphaLISA signal values were measured on a microplate reader EnVision (PerkinElmer, 2105) in the AlphaScreen standard mode, and IRAK4 concentrations were calculated from these signal values. Then a non-linear curve fitting of logarithmic concentration-inhibition rate was performed using GraphPad Prism 7, and the DC50 and Dmax values of the compound were obtained.
# IRAK4 kinase = IRAK4 kinase (Homo sapiens (Human), UniProt Q9NWZ3); experiment: IRAK4 kinase activity test (KinEASE-STK S1 HTRF kit); assay type: biochemical; details: 2.5 nM IRAK4 kinase, 7 μM ATP, 37° C. 120 min
# Procedure: Then 2.5 nM 1RAK4 kinase (Carna), 1 μM biotinylated polypeptide substrate (Cisbio) and 7 μM adenosine triphosphate (Sigma-Aldrich) were sequentially added, and the mixtures were incubated at 37° C. for 120 min. Subsequently, an anti-phosphoserine/threonine antibody (Cisbio) conjugated with a europium element compound and conjugated modified XL665 streptavidin (Cisbio) were added to the reaction systems to stop the reactions. After 1 h of incubation at room temperature, the fluorescence intensity of each well was measured at the excitation wavelength of 337 nm and the emission wavelengths of 620 nm and 665 nm with a microplate reader EnVision (PerkinElmer) in the HTRF mode, and Ratio values were calculated using the formula Ratio=(665 nm/620 nm)×[…]. The inhibition rate of the compound at each concentration was calculated by comparing the fluorescence intensity ratio with that of the control group. Then a non-linear curve fitting of logarithmic concentration-inhibition rate was performed using GraphPad Prism 7, and the IC50 value of the compound was obtained.
# IRAK4 kinase, sequence (Q9NWZ3 whole entry): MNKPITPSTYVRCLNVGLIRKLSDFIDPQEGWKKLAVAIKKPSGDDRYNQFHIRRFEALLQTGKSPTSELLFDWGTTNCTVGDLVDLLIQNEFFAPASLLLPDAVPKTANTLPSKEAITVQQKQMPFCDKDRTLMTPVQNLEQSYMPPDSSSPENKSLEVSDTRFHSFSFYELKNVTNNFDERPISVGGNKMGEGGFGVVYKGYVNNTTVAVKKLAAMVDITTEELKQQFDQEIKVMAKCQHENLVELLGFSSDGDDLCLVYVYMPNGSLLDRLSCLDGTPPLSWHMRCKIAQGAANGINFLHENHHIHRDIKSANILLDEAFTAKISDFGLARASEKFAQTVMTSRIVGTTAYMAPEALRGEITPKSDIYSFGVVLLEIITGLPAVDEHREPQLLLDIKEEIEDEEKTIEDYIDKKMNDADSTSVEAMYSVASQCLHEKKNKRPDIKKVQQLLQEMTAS
# IRAK4 protein in THP-1 cells, sequence (Q9NWZ3 whole entry): as above
Compound,DC50 [1] [nM],Dmax [1] [%],IC50 (IRAK4 kinase) [nM]
"COc1ccc(C(=O)N2CCC3(CCC(CN4CCC(n5cc(NC(=O)c6cnn7ccc(N8C[C@H]9C[C@@H]8CO9)nc67)c(C(F)F)n5)CC4)CC3)CC2)cc1N1CCC(=O)NC1=O [Example 13, 5-((1R,4R)-2-oxa-5-azabicyclo[2.2.1]heptan-5-yl)-N-(3-(difluoromethyl)-1-(1-((3-(3-(2,4-dioxotetrahydropyrimidin-1(2H)-yl)-4-methoxybenzoyl)-3-azaspiro[5.5]undecan-9-yl)methyl)piperidin-4-yl)-1H-pyrazol-4-yl)pyrazolo[1,5-a]pyrimidine-3-carboxamide]",5.5,84.4,19.3
"O=C1CCN(c2cc(C(=O)N3CCC4(CCC(CN5CCC(n6cc(NC(=O)c7cnn8ccc(N9CCOCC9)nc78)c(C(F)F)n6)CC5)CC4)CC3)ccc2Cl)C(=O)N1 [Example 15, N-(1-(1-((3-(4-chloro-3-(2,4-dioxotetrahydropyrimidin-1(2H)-yl)benzoyl)-3-azaspiro[5.5]undecan-9-yl)methyl)piperidin-4-yl)-3-(difluoromethyl)-1H-pyrazol-4-yl)-5-morpholinopyrazolo[1,5-a]pyrimidine-3-carboxamide]",2.5,92.1,14.2
"COc1ccc(C(=O)N2CCC3(CCC(CN4CCC(n5cc(NC(=O)c6cnn7ccc(N8CC9CCC(C8)O9)nc67)c(C(F)F)n5)CC4)CC3)CC2)cc1N1CCC(=O)NC1=O [Example 16, 5-(8-oxa-3-azabicyclo[3.2.1]octan-3-yl)-N-(3-(difluoromethyl)-1-(1-((3-(3-(2,4-dioxotetrahydropyrimidin-1(2H)-yl)-4-methoxybenzoyl)-3-azaspiro[5.5]undecan-9-yl)methyl)piperidin-4-yl)-1H-pyrazol-4-yl)pyrazolo[1,5-a]pyrimidine-3-carboxamide]",6.4,87.9,8.8
"O=C1CCN(c2cc(C(=O)N3CCC(COCCN4CCC(n5cc(NC(=O)c6cnn7ccc(N8C[C@H]9C[C@@H]8CO9)nc67)c(C(F)F)n5)CC4)CC3)ccc2Cl)C(=O)N1 [Example 18, 5-((1R,4R)-2-oxa-5-azabicyclo[2.2.1]heptan-5-yl)-N-(1-(1-(2-((1-(4-chloro-3-(2,4-dioxotetrahydropyrimidin-1(2H)-yl)benzoyl)piperidin-4-yl)methoxy)ethyl)piperidin-4-yl)-3-(difluoromethyl)-1H-pyrazol-4-yl)pyrazolo[1,5-a]pyrimidine-3-carboxamide]",54.3,62.5,66.9
"O=C1CCN(c2cc(C(=O)N3CCC4(CCC(CN5CCC(n6cc(NC(=O)c7cnn8ccc(N9CCNCC9)nc78)c(C(F)F)n6)CC5)CC4)CC3)ccc2Cl)C(=O)N1 [Example 19, N-(1-(1-((3-(4-chloro-3-(2,4-dioxotetrahydropyrimidin-1(2H)-yl)benzoyl)-3-azaspiro[5.5]undecan-9-yl)methyl)piperidin-4-yl)-3-(difluoromethyl)-1H-pyrazol-4-yl)-5-(piperazin-1-yl)pyrazolo[1,5-a]pyrimidine-3-carboxamide]",5.1,97.7,3.8
"CN(CCN1CCC(n2cc(NC(=O)c3cnn4ccc(N5C[C@H]6C[C@@H]5CO6)nc34)c(C(F)F)n2)CC1)CC1CCN(C(=O)c2ccc(Cl)c(N3CCC(=O)NC3=O)c2)CC1 [Example 20, 5-((1R,4R)-2-oxa-5-azabicyclo[2.2.1]heptan-5-yl)-N-(1-(1-(2-(((1-(4-chloro-3-(2,4-dioxotetrahydropyrimidin-1(2H)-yl)benzoyl)piperidin-4-yl)methyl)(methyl)amino)ethyl)piperidin-4-yl)-3-(difluoromethyl)-1H-pyrazol-4-yl)pyrazolo[1,5-a]pyrimidine-3-carboxamide]",78.6,87,89.2
"O=C1CCN(c2cc(C(=O)N3CCC(CCCCN4CCC(n5cc(NC(=O)c6cnn7ccc(N8C[C@H]9C[C@@H]8CO9)nc67)c(C(F)F)n5)CC4)CC3)ccc2Cl)C(=O)N1 [Example 21, 5-((1R,4R)-2-oxa-5-azabicyclo[2.2.1]heptan-5-yl)-N-(1-(1-(4-(1-(4-chloro-3-(2,4-dioxotetrahydropyrimidin-1(2H)-yl)benzoyl)piperidin-4-yl)butyl)piperidin-4-yl)-3-(difluoromethyl)-1H-pyrazol-4-yl)pyrazolo[1,5-a]pyrimidine-3-carboxamide]",9.6,95.5,9.9
"O=C1CCN(c2cc(C(=O)N3CCC(OCCCN4CCC(n5cc(NC(=O)c6cnn7ccc(N8C[C@H]9C[C@@H]8CO9)nc67)c(C(F)F)n5)CC4)CC3)ccc2Cl)C(=O)N1 [Example 23, 5-((1R,4R)-2-oxa-5-azabicyclo[2.2.1]heptan-5-yl)-N-(1-(1-(3-((1-(4-chloro-3-(2,4-dioxotetrahydropyrimidin-1(2H)-yl)benzoyl)piperidin-4-yl)oxy)propyl)piperidin-4-yl)-3-(difluoromethyl)-1H-pyrazol-4-yl)pyrazolo[1,5-a]pyrimidine-3-carboxamide]",10.1,93.7,23
"O=C1CCN(c2cc(C(=O)N3CCC4(CCC(CN5CCC(n6cc(NC(=O)c7cnn8ccc(N9CCOCC9)nc78)c(C(F)F)n6)CC5)CC4)CC3)ccc2F)C(=O)N1 [Example 24, N-(3-(difluoromethyl)-1-(1-((3-(3-(2,4-dioxotetrahydropyrimidin-1(2H)-yl)-4-fluorobenzoyl)-3-azaspiro[5.5]undecan-9-yl)methyl)piperidin-4-yl)-1H-pyrazol-4-yl)-5-morpholinopyrazolo[1,5-a]pyrimidine-3-carboxamide]",6.16,96.3,6.08
"O=C1CCN(c2cc(C(=O)N3CCC4(CCC(CN5CCC(n6cc(NC(=O)c7cnn8ccc(N9CCOCC9)nc78)c(C(F)F)n6)CC5)CC4)CC3)ccc2C(F)(F)F)C(=O)N1 [Example 25, N-(3-(difluoromethyl)-1-(1-((3-(3-(2,4-dioxotetrahydropyrimidin-1(2H)-yl)-4-(trifluoromethyl)benzoyl)-3-azaspiro[5.5]undecan-9-yl)methyl)piperidin-4-yl)-1H-pyrazol-4-yl)-5-morpholinopyrazolo[1,5-a]pyrimidine-3-carboxamide]",62.1,97.8,14.1
"COc1ccc(C(=O)N2CCC3(CCC(CCN4CCC(n5cc(NC(=O)c6cnn7ccc(N8CCOCC8)nc67)c(C(F)F)n5)CC4)CC3)CC2)cc1N1CCC(=O)NC1=O [Example 28, N-(3-(difluoromethyl)-1-(1-(2-(3-(3-(2,4-dioxotetrahydropyrimidin-1(2H)-yl)-4-methoxybenzoyl)-3-azaspiro[5.5]undecan-9-yl)ethyl)piperidin-4-yl)-1H-pyrazol-4-yl)-5-morpholinopyrazolo[1,5-a]pyrimidine-3-carboxamide]",3.18,89.4,12.9
"Cc1ccc(C(=O)N2CCC3(CCC(CN4CCC(n5cc(NC(=O)c6cnn7ccc(N8CCOCC8)nc67)c(C(F)F)n5)CC4)CC3)CC2)cc1N1CCC(=O)NC1=O [Example 34, N-(3-(difluoromethyl)-1-(1-((3-(3-(2,4-dioxotetrahydropyrimidin-1(2H)-yl)-4-methylbenzoyl)-3-azaspiro[5.5]undecan-9-yl)methyl)piperidin-4-yl)-1H-pyrazol-4-yl)-5-morpholinopyrazolo[1,5-a]pyrimidine-3-carboxamide]",3.55,87.1,11
"O=C1CCN(c2cc(C(=O)N3CCC(CCN4CCC(n5cc(NC(=O)c6cnn7ccc(N8CCOCC8)nc67)c(C(F)F)n5)CC4)CC3)ccc2F)C(=O)N1 [Example 37, N-(3-(difluoromethyl)-1-(1-(2-(1-(3-(2,4-dioxotetrahydropyrimidin-1(2H)-yl)-4-fluorobenzoyl)piperidin-4-yl)ethyl)piperidin-4-yl)-1H-pyrazol-4-yl)-5-morpholinopyrazolo[1,5-a]pyrimidine-3-carboxamide]",42,81.1,13.1
